Assay results: ChEMBL document CHEMBL3045284 (Crop Prot, 2009)

What was measured:
Type in all cases: functional
Pyricularia oryzae [1] = experiment: Antifungal activity against drug-sensitive Magnaporthe oryzae infected six-leaf stage of rice plant assessed as reduction of susceptible lesion number per leaf area at 2 time MIC treated 24 hr before fungal infection measured after 6 days relative to control; parameters: scale not given: the % may be the effect or the level left
Pyricularia oryzae [2] = experiment: Antifungal activity against drug-sensitive Magnaporthe oryzae infected six-leaf stage of rice plant assessed as reduction of disease recovery at 2 time MIC treated 24 hr before fungal infection measured after 6 days relative to control; parameters: scale not given: the % may be the effect or the level left
Pyricularia oryzae [3] = experiment: Antifungal activity against Magnaporthe oryzae infected six-leaf stage of rice plant assessed susceptible lesion number per leaf area at 8 time MIC treated 24 hr before fungal infection measured after 24 hr
Pyricularia oryzae [4] = experiment: Antifungal activity against Magnaporthe oryzae infected six-leaf stage of rice plant assessed susceptible lesion number per leaf area at 4 time MIC treated 24 hr before fungal infection measured after 24 hr
Pyricularia oryzae [5] = experiment: Antifungal activity against Magnaporthe oryzae infected six-leaf stage of rice plant assessed susceptible lesion number per leaf area at 2 time MIC treated 24 hr before fungal infection measured after 24 hr
Pyricularia oryzae [6] = experiment: Antifungal activity against Magnaporthe oryzae infected six-leaf stage of rice plant assessed susceptible lesion number per leaf area at MIC treated 24 hr before fungal infection measured after 24 hr
Pyricularia oryzae [7] = experiment: Antifungal activity against drug-sensitive Magnaporthe oryzae infected six-leaf stage of rice plant assessed susceptible lesion number per leaf area treated 24 hr before fungal infection measured after 24 hr
Pyricularia oryzae [8] = experiment: Antifungal activity against drug-sensitive Magnaporthe oryzae infected six-leaf stage of rice plant assessed as disease recovery treated 24 hr before fungal infection measured after 24 hr
Pyricularia oryzae [9] = experiment: Antifungal activity against Magnaporthe oryzae infected six-leaf stage of rice plant assessed as disease recovery at MIC treated 24 hr before fungal infection measured after 24 hr
Pyricularia oryzae [10] = experiment: Antifungal activity against Magnaporthe oryzae infected six-leaf stage of rice plant assessed as disease recovery at 2 time MIC treated 24 hr before fungal infection measured after 24 hr
Pyricularia oryzae [11] = experiment: Antifungal activity against Magnaporthe oryzae infected six-leaf stage of rice plant assessed as disease recovery at 4 time MIC treated 24 hr before fungal infection measured after 24 hr
Pyricularia oryzae [12] = experiment: Antifungal activity against Magnaporthe oryzae infected six-leaf stage of rice plant assessed as disease recovery at 8 time MIC treated 24 hr before fungal infection measured after 24 hr

Row | Compound | Activity (Pyricularia oryzae [1]) | Activity (Pyricularia oryzae [2]) | Activity (Pyricularia oryzae [3]) | Activity (Pyricularia oryzae [4]) | Activity (Pyricularia oryzae [5]) | Activity (Pyricularia oryzae [6]) | Activity (Pyricularia oryzae [7]) | Activity (Pyricularia oryzae [8]) | Activity (Pyricularia oryzae [9]) | Activity (Pyricularia oryzae [10]) | Activity (Pyricularia oryzae [11]) | Activity (Pyricularia oryzae [12])
1 | CCOP(=O)(Sc1ccccc1)Sc1ccccc1 [EDIFENPHOS] | 63.5% | 55.6% | 0.03 cm2 | 0.07 cm2 | 0.14 cm2 | 0.19 cm2 | 0.1 cm2 | 0.27% | 0.49% | 0.35% | 0.18% | 0.08%
2 | CC(C)OP(=O)(OC(C)C)SCc1ccccc1 [IPROBENFOS] | 28.1% | 28.8% | 0.39 cm2 | 0.93 cm2 | 1.13 cm2 | 1.28 cm2 | 0.73 cm2 | 0.8% | 1.23% | 1.17% | 0.87% | 0.45%
